Assay results reported in paper PMC6458995, “MAP4K4 Inhibition Promotes Survival of Human Stem Cell-Derived Cardiomyocytes and Reduces Infarct Size In Vivo” (Cell Stem Cell, 2019).

What was measured:
Test in all cases: Dundee kinase panel
Format in all cases: biochemical
Details in all cases: for remaining activity at 1 µM: read-out: residual activity
[1] = target: T1, PAK4 (Homo sapiens, UniProt O96013)
T1 construct: lines 1-140) and Reaction Biology
Protocol: (§1) Compounds were screened at 1 μM. For key hits, pIC50 values were then determined by HTRF as above. […] Stability in mouse and human liver microsomes was determined by Cyprotex.

[2] = target: T2, TESK1 (Homo sapiens, UniProt Q15569)
T2 construct: lines 1-140) and Reaction Biology
Protocol: as §1

[3] = target: T3, VEGFR (Homo sapiens, UniProt P17948)
T3 construct: lines 1-140) and Reaction Biology
T3 sequence (P17948 784-1338 limits assumed): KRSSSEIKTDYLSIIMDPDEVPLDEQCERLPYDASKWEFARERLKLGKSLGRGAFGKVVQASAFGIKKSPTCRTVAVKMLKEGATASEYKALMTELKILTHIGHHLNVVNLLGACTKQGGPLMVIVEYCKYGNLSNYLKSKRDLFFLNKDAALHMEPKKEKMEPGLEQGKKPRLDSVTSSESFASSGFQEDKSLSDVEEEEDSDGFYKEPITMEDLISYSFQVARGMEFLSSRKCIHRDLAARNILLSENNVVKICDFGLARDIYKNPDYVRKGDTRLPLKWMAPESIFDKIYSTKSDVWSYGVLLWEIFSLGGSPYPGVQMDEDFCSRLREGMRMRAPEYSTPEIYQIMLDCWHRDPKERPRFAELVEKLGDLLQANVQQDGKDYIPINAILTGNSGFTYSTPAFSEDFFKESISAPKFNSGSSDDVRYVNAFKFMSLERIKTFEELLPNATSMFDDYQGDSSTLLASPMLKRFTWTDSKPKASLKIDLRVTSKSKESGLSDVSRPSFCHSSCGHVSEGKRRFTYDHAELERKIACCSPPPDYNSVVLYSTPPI
Protocol: as §1

[4] = target: T4, TSSK1 (Homo sapiens, UniProt Q9BXA7)
T4 construct: lines 1-140) and Reaction Biology
T4 sequence (Q9BXA7 1-367): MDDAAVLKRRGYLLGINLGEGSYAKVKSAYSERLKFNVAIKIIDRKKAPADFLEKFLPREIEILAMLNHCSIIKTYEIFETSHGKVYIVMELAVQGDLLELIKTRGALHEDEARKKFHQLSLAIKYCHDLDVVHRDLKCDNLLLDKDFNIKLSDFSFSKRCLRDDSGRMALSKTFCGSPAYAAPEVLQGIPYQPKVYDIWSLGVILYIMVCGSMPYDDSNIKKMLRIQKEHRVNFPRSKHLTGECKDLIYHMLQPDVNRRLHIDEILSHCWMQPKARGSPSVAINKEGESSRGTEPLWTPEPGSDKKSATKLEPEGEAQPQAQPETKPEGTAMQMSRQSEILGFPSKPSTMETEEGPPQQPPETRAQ
Protocol: as §1

[5] = target: T5, YES1 (Homo sapiens, UniProt P07947)
T5 construct: lines 1-140) and Reaction Biology
Protocol: as §1

[6] = target: T6, ERK8 (Homo sapiens, UniProt Q8TD08)
T6 construct: lines 1-140) and Reaction Biology
T6 sequence (Q8TD08 1-544): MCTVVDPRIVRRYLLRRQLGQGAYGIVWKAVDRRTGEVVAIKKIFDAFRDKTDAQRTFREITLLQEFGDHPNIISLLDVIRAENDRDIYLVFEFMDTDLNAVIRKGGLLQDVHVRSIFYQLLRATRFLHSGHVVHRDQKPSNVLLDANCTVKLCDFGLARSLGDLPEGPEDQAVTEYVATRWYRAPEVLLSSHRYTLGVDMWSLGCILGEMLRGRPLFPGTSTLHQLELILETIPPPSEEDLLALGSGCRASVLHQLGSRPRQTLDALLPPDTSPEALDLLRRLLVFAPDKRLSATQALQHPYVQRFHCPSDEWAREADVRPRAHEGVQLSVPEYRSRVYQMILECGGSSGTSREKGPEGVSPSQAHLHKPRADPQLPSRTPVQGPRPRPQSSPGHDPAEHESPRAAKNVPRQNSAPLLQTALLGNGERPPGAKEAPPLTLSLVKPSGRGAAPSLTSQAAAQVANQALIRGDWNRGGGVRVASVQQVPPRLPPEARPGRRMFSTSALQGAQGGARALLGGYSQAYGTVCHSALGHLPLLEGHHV
Protocol: as §1

[7] = target: T7, NEK2a (Homo sapiens, UniProt P51955)
T7 construct: lines 1-140) and Reaction Biology
T7 sequence (P51955 1-445): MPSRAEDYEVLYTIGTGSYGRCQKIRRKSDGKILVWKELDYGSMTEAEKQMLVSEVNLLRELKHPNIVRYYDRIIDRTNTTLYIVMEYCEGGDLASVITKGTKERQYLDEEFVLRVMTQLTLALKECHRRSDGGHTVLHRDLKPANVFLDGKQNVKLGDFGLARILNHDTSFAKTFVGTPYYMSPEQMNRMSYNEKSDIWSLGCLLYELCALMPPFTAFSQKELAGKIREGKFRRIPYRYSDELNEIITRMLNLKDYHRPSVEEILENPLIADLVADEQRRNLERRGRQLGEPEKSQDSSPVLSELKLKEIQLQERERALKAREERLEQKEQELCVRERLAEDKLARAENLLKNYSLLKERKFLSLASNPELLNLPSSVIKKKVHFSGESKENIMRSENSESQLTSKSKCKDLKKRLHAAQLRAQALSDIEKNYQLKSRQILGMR
Protocol: as §1

[8] = target: T8, TRKA (Homo sapiens, UniProt P04629)
T8 construct: lines 1-140) and Reaction Biology
Protocol: as §1

[9] = target: T9, LCK (Homo sapiens, UniProt P06239)
T9 construct: lines 1-140) and Reaction Biology
Protocol: as §1

[10] = target: T10, SIK3 (Homo sapiens, UniProt Q9Y2K2)
T10 construct: lines 1-140) and Reaction Biology
Protocol: as §1

[11] = target: T11, RSK2 (Homo sapiens, UniProt P51812)
T11 construct: lines 1-140) and Reaction Biology
Protocol: as §1

[12] = target: T12, JNK1 (Homo sapiens, UniProt P45983)
T12 construct: lines 1-140) and Reaction Biology
Protocol: as §1

T5 sequence (P07947 whole entry): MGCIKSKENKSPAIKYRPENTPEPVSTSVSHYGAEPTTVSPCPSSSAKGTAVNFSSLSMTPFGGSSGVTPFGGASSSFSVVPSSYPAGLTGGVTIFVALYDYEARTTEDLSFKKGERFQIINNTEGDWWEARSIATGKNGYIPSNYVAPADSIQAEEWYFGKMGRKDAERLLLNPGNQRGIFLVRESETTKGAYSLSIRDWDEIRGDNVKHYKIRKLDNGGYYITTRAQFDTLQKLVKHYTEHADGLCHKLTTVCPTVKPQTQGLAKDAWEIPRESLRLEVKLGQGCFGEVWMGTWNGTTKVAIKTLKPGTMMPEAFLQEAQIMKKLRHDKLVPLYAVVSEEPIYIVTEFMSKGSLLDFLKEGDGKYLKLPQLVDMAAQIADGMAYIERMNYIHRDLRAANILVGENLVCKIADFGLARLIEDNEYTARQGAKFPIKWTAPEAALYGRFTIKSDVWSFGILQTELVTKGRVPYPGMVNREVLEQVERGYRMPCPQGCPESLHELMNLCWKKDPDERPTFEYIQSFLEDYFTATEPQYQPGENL
T8 sequence (P04629 33-796): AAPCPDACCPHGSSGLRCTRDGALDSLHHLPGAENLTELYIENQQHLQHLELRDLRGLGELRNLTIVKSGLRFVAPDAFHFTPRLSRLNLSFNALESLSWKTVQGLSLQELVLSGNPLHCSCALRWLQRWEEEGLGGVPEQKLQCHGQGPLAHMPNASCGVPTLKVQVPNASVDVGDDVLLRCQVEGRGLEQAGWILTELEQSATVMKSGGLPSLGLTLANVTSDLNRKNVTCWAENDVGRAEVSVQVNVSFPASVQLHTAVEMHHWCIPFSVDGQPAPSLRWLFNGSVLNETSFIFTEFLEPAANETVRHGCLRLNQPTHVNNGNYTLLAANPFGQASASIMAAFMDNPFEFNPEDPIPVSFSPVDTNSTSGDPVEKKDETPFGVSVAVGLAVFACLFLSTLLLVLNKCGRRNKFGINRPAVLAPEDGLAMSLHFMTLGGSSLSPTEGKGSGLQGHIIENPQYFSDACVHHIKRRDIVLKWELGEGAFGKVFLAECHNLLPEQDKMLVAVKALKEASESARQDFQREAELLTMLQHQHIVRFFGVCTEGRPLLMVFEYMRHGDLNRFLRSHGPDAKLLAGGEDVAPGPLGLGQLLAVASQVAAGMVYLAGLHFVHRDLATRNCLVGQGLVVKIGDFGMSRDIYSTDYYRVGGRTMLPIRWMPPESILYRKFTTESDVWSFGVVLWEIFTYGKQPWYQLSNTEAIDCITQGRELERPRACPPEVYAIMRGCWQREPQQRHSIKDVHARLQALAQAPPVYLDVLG
T10 sequence (Q9Y2K2 whole entry): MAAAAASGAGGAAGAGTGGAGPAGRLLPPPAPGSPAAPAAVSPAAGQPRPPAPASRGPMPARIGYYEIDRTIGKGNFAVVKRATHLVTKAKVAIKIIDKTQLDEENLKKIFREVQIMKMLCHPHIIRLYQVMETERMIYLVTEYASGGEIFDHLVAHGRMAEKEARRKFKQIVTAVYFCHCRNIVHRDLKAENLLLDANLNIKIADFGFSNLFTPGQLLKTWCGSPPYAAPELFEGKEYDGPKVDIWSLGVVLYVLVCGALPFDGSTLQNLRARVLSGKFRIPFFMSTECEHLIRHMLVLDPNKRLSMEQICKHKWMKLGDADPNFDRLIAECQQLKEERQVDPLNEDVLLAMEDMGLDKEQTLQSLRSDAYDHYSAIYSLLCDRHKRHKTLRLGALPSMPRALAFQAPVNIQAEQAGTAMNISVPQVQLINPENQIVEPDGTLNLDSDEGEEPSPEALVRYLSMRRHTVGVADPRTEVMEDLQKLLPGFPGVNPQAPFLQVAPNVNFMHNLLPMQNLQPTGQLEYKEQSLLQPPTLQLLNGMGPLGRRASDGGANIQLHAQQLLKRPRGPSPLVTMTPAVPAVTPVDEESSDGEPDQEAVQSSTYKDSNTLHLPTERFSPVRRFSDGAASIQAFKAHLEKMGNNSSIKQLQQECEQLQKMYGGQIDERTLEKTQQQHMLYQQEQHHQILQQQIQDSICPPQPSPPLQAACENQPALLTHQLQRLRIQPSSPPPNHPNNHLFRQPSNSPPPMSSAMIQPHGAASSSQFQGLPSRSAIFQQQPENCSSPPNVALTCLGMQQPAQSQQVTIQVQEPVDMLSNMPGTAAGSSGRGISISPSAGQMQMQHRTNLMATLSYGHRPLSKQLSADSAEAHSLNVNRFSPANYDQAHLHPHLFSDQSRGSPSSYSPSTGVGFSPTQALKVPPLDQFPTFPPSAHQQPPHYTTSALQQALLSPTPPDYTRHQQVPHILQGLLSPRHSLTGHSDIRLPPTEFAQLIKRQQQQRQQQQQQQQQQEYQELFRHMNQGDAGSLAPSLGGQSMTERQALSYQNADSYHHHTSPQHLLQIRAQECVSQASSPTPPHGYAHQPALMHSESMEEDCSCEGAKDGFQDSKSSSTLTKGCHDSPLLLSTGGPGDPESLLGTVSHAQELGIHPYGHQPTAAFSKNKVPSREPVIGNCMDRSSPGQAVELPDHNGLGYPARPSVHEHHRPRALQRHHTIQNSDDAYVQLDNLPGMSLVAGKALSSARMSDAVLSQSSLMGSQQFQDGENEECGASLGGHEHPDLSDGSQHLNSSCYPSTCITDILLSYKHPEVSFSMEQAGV
T12 sequence (P45983 whole entry): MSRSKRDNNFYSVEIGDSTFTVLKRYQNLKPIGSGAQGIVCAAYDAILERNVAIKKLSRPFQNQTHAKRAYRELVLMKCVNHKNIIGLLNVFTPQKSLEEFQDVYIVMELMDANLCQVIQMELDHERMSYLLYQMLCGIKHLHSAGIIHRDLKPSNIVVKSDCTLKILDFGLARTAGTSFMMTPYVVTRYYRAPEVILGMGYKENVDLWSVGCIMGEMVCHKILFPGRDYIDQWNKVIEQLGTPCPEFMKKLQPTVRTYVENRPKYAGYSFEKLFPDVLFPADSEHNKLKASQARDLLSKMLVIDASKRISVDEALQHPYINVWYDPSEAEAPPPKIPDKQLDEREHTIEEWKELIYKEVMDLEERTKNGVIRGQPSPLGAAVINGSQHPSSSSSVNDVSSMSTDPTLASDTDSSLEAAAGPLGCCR
T1 sequence (O96013 whole entry): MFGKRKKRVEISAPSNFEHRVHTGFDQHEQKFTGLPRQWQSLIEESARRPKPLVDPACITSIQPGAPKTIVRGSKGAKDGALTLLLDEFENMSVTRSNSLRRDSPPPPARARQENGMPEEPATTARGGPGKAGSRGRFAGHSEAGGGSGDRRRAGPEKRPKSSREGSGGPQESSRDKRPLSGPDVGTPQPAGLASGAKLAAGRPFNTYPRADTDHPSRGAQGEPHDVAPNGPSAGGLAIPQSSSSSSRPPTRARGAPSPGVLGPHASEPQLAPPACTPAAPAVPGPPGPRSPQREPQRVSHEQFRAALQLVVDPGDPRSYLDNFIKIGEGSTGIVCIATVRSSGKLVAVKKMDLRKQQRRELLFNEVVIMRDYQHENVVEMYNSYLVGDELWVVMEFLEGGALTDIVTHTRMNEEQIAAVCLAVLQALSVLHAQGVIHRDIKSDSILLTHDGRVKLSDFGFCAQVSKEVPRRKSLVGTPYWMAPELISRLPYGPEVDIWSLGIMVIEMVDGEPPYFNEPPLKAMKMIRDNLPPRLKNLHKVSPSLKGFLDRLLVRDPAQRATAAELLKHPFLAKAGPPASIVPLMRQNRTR
T11 sequence (P51812 whole entry): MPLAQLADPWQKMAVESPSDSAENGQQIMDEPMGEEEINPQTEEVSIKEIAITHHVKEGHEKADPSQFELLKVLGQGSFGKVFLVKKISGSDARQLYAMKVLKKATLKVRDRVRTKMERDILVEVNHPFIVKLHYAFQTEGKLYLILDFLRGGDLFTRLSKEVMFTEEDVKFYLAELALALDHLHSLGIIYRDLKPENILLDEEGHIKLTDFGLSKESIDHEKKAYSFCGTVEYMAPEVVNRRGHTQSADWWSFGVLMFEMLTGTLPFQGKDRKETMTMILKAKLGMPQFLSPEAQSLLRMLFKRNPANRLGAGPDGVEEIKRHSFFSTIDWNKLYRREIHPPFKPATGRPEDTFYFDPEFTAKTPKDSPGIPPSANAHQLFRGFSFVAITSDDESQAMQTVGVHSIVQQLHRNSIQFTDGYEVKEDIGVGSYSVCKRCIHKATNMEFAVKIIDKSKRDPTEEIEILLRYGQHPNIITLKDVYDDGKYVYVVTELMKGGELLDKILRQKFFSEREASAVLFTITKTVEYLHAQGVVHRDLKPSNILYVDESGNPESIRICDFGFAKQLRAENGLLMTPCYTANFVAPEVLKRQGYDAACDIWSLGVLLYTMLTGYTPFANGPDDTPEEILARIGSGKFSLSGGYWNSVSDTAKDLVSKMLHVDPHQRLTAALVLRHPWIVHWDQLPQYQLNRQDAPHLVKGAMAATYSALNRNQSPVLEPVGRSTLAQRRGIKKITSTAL
T2 sequence (Q15569 whole entry): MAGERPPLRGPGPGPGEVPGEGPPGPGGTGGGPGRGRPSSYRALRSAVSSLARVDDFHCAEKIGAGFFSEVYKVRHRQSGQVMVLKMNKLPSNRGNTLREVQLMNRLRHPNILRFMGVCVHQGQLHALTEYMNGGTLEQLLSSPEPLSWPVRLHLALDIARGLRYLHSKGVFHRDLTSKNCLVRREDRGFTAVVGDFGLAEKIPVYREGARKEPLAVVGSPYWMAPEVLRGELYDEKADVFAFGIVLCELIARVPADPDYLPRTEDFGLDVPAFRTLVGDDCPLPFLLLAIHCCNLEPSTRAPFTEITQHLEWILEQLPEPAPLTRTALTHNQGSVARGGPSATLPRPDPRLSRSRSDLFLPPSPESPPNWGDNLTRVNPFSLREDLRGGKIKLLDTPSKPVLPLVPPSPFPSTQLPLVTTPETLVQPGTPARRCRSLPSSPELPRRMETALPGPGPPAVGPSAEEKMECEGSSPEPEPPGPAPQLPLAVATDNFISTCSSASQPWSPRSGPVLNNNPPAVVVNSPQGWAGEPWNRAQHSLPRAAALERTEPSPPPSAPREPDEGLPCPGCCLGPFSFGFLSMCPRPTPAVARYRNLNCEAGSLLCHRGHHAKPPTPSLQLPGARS

SMILES | remaining activity at 1 µM [1] [%] | remaining activity at 1 µM [2] [%] | remaining activity at 1 µM [3] [%] | remaining activity at 1 µM [4] [%] | remaining activity at 1 µM [5] [%] | remaining activity at 1 µM [6] [%] | remaining activity at 1 µM [7] [%] | remaining activity at 1 µM [8] [%] | remaining activity at 1 µM [9] [%] | remaining activity at 1 µM [10] [%] | remaining activity at 1 µM [11] [%] | remaining activity at 1 µM [12] [%] | further results
COCCOc1ccc(-c2cn(-c3ccccc3)c3nc[nH]c(=O)c23)cc1 [DMX-5804, 5-[4-(2-methoxy-ethoxy)-phenyl]-7-phenyl-3,7-dihydro-pyrrolo[2,3-d]pyrimidin-4-one] | 100 | 90 | 27 | 103 | 96 | 110 | 106 | 74 | 109 | 90 | 93 | 122 | –
Oc1ncnc2c1c(-c1ccccc1)cn2-c1ccccc1 [F1386-0303, 5,7-diphenyl-7H-pyrrolo[2,3-d]pyrimidin-4-ol] | 105 | 101 | 73 | 109 | 85 | 109 | 108 | 89 | 112 | 110 | 114 | 99 | –
Nc1ncc(C(=O)NC2CN(C(=O)C3CC3)C2)c2ccc(-c3cccc(F)c3)nc12 [GNE-495] | – | – | – | – | – | – | – | – | – | – | – | – | residual activity ([1]; 1 μM): 28%; residual activity ([2]; 1 μM): 72%; residual activity ([3]; 1 μM): 92%; residual activity ([4]; 1 μM): 77%; residual activity ([5]; 1 μM): 53%; residual activity ([6]; 1 μM): 95%; residual activity ([7]; 1 μM): 85%; residual activity ([8]; 1 μM): 68%; residual activity ([9]; 1 μM): 104%; residual activity ([10]; 1 μM): 87%; residual activity ([11]; 1 μM): 62%; residual activity ([12]; 1 μM): 63%
O=C1Nc2ccc(I)cc2/C1=C/c1cc(Br)c(O)c(Br)c1 [GW5074] | 94 | 32 | 29 | 73 | 93 | 35 | 8 | 51 | 58 | 65 | 49 | 70 | –
O=C1Cc2c([nH]c3ccc(Br)cc23)-c2ccccc2N1 [Kenpaullone] | 104 | 19 | 30 | 46 | 100 | 46 | 89 | – | – | 12 | – | 100 | –
